The source made the active and inactive calls. No cut-off for these calls is given here.
Tests used:
[1] = molecular target: T1, Rhodopsin (Bos taurus, UniProt P02699); experiment: Inhibition of bovine retinal rod outer-segment photoactivated rhodopsin-transducer interaction by transducer release assay
[2] = molecular target: T1, Rhodopsin; experiment: Binding affinity to photoactivated rhodopsin in bovine retinal rod outer-segment membranes assessed as induction of extra receptor MII state stabilization by UV/visible difference spectroscopy
[3] = molecular target: Rhodopsin (Bos taurus) (UniProt P02699); experiment: Binding affinity to photoactivated rhodopsin in bovine retinal rod outer-segment membranes assessed as induction of extra receptor MII state stabilization at 250 uM by UV/visible difference spectroscopy
Chain of Rhodopsin (Bos taurus) (P02699 whole entry): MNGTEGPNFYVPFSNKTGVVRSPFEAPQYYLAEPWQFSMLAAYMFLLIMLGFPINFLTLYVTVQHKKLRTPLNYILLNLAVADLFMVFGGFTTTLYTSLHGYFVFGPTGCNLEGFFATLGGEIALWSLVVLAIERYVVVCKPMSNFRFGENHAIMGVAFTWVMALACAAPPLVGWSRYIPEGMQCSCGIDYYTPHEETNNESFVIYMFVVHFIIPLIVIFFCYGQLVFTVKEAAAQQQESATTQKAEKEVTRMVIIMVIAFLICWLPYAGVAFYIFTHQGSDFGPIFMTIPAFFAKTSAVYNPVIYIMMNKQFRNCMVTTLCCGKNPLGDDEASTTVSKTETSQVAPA

T1 sequence (P02699 whole entry): as above

| Compound | IC50 [1] [µM] | EC50 [2] [µM] | Activity [3] |
| --- | --- | --- | --- |
| C[C@H]1[C@H](C)CC[C@]2(C(=O)O)CC[C@]3(C)C(=CC[C@@H]4[C@@]5(C)C[C@@H](O)[C@H](O)[C@@](C)(CO)[C@@H]5[C@H](O)C[C@]43C)[C@H]12 [MADECASSIC ACID] | 180 | 120 | – |
| C[C@]12CCC(=O)C=C1CC[C@@H]1[C@@H]2[C@@H](O)C[C@@]2(C)[C@H]1CC[C@]2(O)[C@@H](O)CO | – | – | Active |
| C[C@]12CC[C@H]3[C@@H](CCC4=CC(=O)CC[C@@]43C)[C@@H]1CC[C@@H]2CCOS(=O)(=O)c1ccc(Br)cc1 | – | – | Active |
| C[C@H]1[C@H](C)CC[C@]2(C(=O)O)CC[C@]3(C)C(=CC[C@@H]4[C@@]5(C)CC[C@H](O)C(C)(C)[C@@H]5CC[C@]43C)[C@H]12 | – | – | Active |
| CC1(C)CC[C@]2(C(=O)O)CC[C@]3(C)C(=CC[C@@H]4[C@@]5(C)CC[C@H](O)C(C)(C)[C@@H]5CC[C@]43C)[C@@H]2C1 | – | – | Active |
| CC1(C)[C@@H](O)CC[C@]2(C)[C@H]3C(=O)C=C4C5C[C@@](C)(C(=O)O)CC[C@]5(C)CC[C@@]4(C)[C@]3(C)CC[C@@H]12 (single isomer, unassigned) | – | – | Active |
| CC1(C)[C@@H](O)CC[C@]2(C)[C@H]3C(=O)C=C4[C@@H]5C[C@@](C)(C(=O)O)CC[C@]5(C)CC[C@@]4(C)[C@]3(C)CC[C@@H]12 | – | – | Active |
| CC1(C)CC[C@]2(C(=O)O)CC[C@]3(C)C(=CC[C@@H]4[C@@]5(C)C[C@H](O)[C@H](O)[C@@](C)(C(=O)O)[C@@H]5CC[C@]43C)[C@@H]2C1 | – | – | Active |

From ChEMBL document CHEMBL1140033 (J Med Chem, 2008)
